Key:
Assay in all cases: relative viability (nuclei count vs DMSO), 5 days (fraction); higher = more cells survive
201T = test system: 201T
Summary of the method: (§1)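 Relative viability is defined as nuclei in treated wells over nuclei in vehicle wells. Duplicate plates were run and medians reported. Lung cancer cell lines in 1536-well plates were dosed by pin tool one day after seeding, with one drug or with a fixed anchor-drug dose plus five library-drug doses (not always all listed) in √10 steps, and nuclei were counted after 5 days.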

ABC-1 = test system: ABC-1
Summary of the method: as §1

CAL-12T = test system: CAL-12T
Summary of the method: as §1

ChaGo-K-1 = test system: ChaGo-K-1
Summary of the method: as §1

EMC-BAC-2 = test system: EMC-BAC-2
Summary of the method: as §1

H3255 = test system: H3255
Summary of the method: as §1

HOP-62 = test system: HOP-62
Summary of the method: as §1

LK-2 = test system: LK-2
Summary of the method: as §1

LXF-289 = test system: LXF-289
Summary of the method: as §1

NCI-H1651 = test system: NCI-H1651
Summary of the method: as §1

NCI-H1734 = test system: NCI-H1734
Summary of the method: as §1

NCI-H1755 = test system: NCI-H1755
Summary of the method: as §1

NCI-H2009 = test system: NCI-H2009
Summary of the method: as §1

NCI-H2087 = test system: NCI-H2087
Summary of the method: as §1

NCI-H2126 = test system: NCI-H2126
Summary of the method: as §1

NCI-H2170 = test system: NCI-H2170
Summary of the method: as §1

NCI-H3122 = test system: NCI-H3122
Summary of the method: as §1

NCI-H322M = test system: NCI-H322M
Summary of the method: as §1

NCI-H441 = test system: NCI-H441
Summary of the method: as §1

NCI-H647 = test system: NCI-H647
Summary of the method: as §1

PC-14 = test system: PC-14
Summary of the method: as §1

SK-MES-1 = test system: SK-MES-1
Summary of the method: as §1

Cc1cnc(-c2cnc(NCCNc3ccc(C#N)cn3)nc2-c2ccc(Cl)cc2Cl)[nH]1 + CC(=O)c1c(C)c2cnc(Nc3ccc(N4CCNCC4)cn3)nc2n(C2CCCC2)c1=O [Palbociclib] (partner 0.5 µM)
relative viability (201T; first compound 0.08 µM): 0.384
relative viability (201T; first compound 0.8 µM): 0.362
relative viability (201T; first compound 2.53 µM): 0.38
relative viability (ABC-1; first compound 0.08 µM): 0.903
relative viability (ABC-1; first compound 0.253 µM): 0.338
relative viability (ABC-1; first compound 0.8 µM): 0.54
relative viability (ABC-1; first compound 2.53 µM): 0.675
relative viability (CAL-12T; first compound 0.08 µM): 0.43
relative viability (CAL-12T; first compound 0.253 µM): 0.413
relative viability (CAL-12T; first compound 0.8 µM): 0.37
relative viability (CAL-12T; first compound 2.53 µM): 0.286
relative viability (ChaGo-K-1; first compound 0.08 µM): 0.929
relative viability (ChaGo-K-1; first compound 0.253 µM): 0.807
relative viability (ChaGo-K-1; first compound 0.8 µM): 0.903
relative viability (ChaGo-K-1; first compound 2.53 µM): 0.833
relative viability (EMC-BAC-2; first compound 0.08 µM): 0.544
relative viability (EMC-BAC-2; first compound 0.253 µM): 0.523
relative viability (EMC-BAC-2; first compound 0.8 µM): 0.543
relative viability (EMC-BAC-2; first compound 2.53 µM): 0.512
relative viability (H3255; first compound 0.08 µM): 0.299
relative viability (H3255; first compound 0.253 µM): 0.34
relative viability (H3255; first compound 0.8 µM): 0.317
relative viability (H3255; first compound 2.53 µM): 0.306
relative viability (HOP-62; first compound 0.08 µM): 0.531
relative viability (HOP-62; first compound 0.253 µM): 0.426
relative viability (HOP-62; first compound 0.8 µM): 0.446
relative viability (HOP-62; first compound 2.53 µM): 0.45
relative viability (LK-2; first compound 0.08 µM): 0.754
relative viability (LK-2; first compound 0.253 µM): 0.645
relative viability (LK-2; first compound 2.53 µM): 0.583
relative viability (LXF-289; first compound 0.08 µM): 0.66
relative viability (LXF-289; first compound 0.253 µM): 0.565
relative viability (LXF-289; first compound 0.8 µM): 0.571
relative viability (LXF-289; first compound 2.53 µM): 0.682
relative viability (NCI-H1651; first compound 0.08 µM): 0.58
relative viability (NCI-H1651; first compound 0.253 µM): 0.468
relative viability (NCI-H1651; first compound 0.8 µM): 0.504
relative viability (NCI-H1651; first compound 2.53 µM): 0.549
relative viability (NCI-H1734; first compound 0.08 µM): 0.403
relative viability (NCI-H1734; first compound 0.253 µM): 0.342
relative viability (NCI-H1734; first compound 0.8 µM): 0.391
relative viability (NCI-H1734; first compound 2.53 µM): 0.189
relative viability (NCI-H1755; first compound 0.08 µM): 0.418
relative viability (NCI-H1755; first compound 0.253 µM): 0.443
relative viability (NCI-H1755; first compound 0.8 µM): 0.446
relative viability (NCI-H1755; first compound 2.53 µM): 0.438
relative viability (NCI-H2009; first compound 0.08 µM): 0.256
relative viability (NCI-H2009; first compound 0.253 µM): 0.208
relative viability (NCI-H2009; first compound 0.8 µM): 0.29
relative viability (NCI-H2009; first compound 2.53 µM): 0.225
relative viability (NCI-H2087; first compound 0.08 µM): 0.235
relative viability (NCI-H2087; first compound 0.8 µM): 0.227
relative viability (NCI-H2087; first compound 2.53 µM): 0.146
relative viability (NCI-H2126; first compound 0.08 µM): 0.369
relative viability (NCI-H2126; first compound 0.253 µM): 0.355
relative viability (NCI-H2126; first compound 0.8 µM): 0.331
relative viability (NCI-H2126; first compound 2.53 µM): 0.341
relative viability (NCI-H2170; first compound 0.08 µM): 0.429
relative viability (NCI-H2170; first compound 0.8 µM): 0.383
relative viability (NCI-H2170; first compound 2.53 µM): 0.371
relative viability (NCI-H3122; first compound 0.08 µM): 0.178
relative viability (NCI-H3122; first compound 0.8 µM): 0.181
relative viability (NCI-H3122; first compound 2.53 µM): 0.188
relative viability (NCI-H322M; first compound 0.08 µM): 0.467
relative viability (NCI-H322M; first compound 0.253 µM): 0.553
relative viability (NCI-H322M; first compound 0.8 µM): 0.477
relative viability (NCI-H322M; first compound 2.53 µM): 0.588
relative viability (NCI-H441; first compound 0.08 µM): 0.224
relative viability (NCI-H441; first compound 0.8 µM): 0.258
relative viability (NCI-H441; first compound 2.53 µM): 0.185
relative viability (NCI-H647; first compound 0.08 µM): 0.434
relative viability (NCI-H647; first compound 0.253 µM): 0.303
relative viability (NCI-H647; first compound 0.8 µM): 0.419
relative viability (NCI-H647; first compound 2.53 µM): 0.393
relative viability (PC-14; first compound 0.08 µM): 0.572
relative viability (PC-14; first compound 0.253 µM): 0.503
relative viability (PC-14; first compound 0.8 µM): 0.614
relative viability (PC-14; first compound 2.53 µM): 0.323
relative viability (SK-MES-1; first compound 0.08 µM): 0.363
relative viability (SK-MES-1; first compound 0.253 µM): 0.332
relative viability (SK-MES-1; first compound 0.8 µM): 0.379
relative viability (SK-MES-1; first compound 2.53 µM): 0.394

— the supplement of paper PMC10307832
